Experiment [1] addresses T1, P2X3 receptor (Canis lupus, UniProt A0A8I3S575).
T1 construct: gene P2RX3; deletion of five first residues in the N-terminal region and the 33 last residues in the C-terminal region; homotrimer
T1 sequence (A0A8I3S575 6-364): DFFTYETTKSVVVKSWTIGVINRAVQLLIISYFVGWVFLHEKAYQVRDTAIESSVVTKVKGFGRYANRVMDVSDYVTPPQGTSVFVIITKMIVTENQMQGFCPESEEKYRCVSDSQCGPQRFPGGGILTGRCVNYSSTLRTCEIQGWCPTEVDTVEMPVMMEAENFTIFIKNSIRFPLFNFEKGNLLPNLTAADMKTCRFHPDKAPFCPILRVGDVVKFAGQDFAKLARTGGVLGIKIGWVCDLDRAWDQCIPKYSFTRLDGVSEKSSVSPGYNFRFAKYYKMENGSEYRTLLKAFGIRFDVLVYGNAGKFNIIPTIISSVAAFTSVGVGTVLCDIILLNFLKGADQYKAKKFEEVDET
The experiment in a line: MST Kd; cryo-EM structure of the P2X3–ATP complex. Type of experiment: binding.

For experiment [2], the target named is T1, P2X3 receptor. Description: ITC Kd; cryo-EM structure of the complex in peptidisc; also calcium influx IC50 […] in cells. Type of experiment: binding.
The target of experiment [3] is P2X3 receptor (Canis lupus), first five N-terminal and last 33 C-terminal residues deleted (Canis lupus sp.). Description: cryo-EM structure; camlipixant-bound P2X3 reconstituted into peptidisc; camlipixant at a molar ratio of 1:5, 30 min on ice; C3 symmetry.

pKd: −log10 of the molar value.

In the case of `Nc1ncnc2c1ncn2[C@@H]1O[C@H](COP(=O)(O)OP(=O)(O)OP(=O)(O)O)[C@@H](O)[C@H]1O` [ATP], on P2X3 receptor [1], the pKd is 5.70. For `CNC(=O)c1cc(F)c(-c2nc3cc(C)ccn3c2C[C@H]2CN(C(=O)OC)CCO2)c(F)c1` [camlipixant], on P2X3 receptor [2], the pKd is 7.00.

On to “P2X3 receptor (Canis lupus), first five N-terminal and last 33 C-terminal residues deleted”, for which the stoichiometry N in experiment [3] amounted to 3.

(Values after publication PMC11783113, “Mechanistic insights into the selective targeting of P2X3 receptor by camlipixant antagonist” (The Journal of Biological Chemistry, 2024).)
